From patent publication US20080058411A1, “Methods For Treating Resistant Or Refractory Tumors” (GPC Biotech AG, priority 2004, published 2008)
Like-named read-outs stand apart in the source and are kept apart here.

Experiments:
[1] = tested on: NCI-Adr resistant subline; test: SRB cytotoxicity assay, P-glycoprotein expressing NCI-Adr resistant subline, with and without verapamil; type: cell-based; settings: for IC50: 48 hours, SRB; for RR (relative resistance) NCI-Adr resistant −verapamil vs +verapamil: ratio of the means of the resistant cells compared to the sensitive cells
Description: (§5) Briefly, cells were plated in 96 well dishes 24 hours prior to compound addition. Where noted, they were exposed to verapamil for 4 hours prior to compound addition and then throughout the treatment period (48 hours). The assay was terminated with the addition of cold TCA to a final concentration of 10% and the plates were incubated for one hour at 4° C. The plates were then washed 5 times with water and 100 μl of a Sulforhodamine B solution (4%) was added to each well. The plate was then incubated for 10 minutes at room temperature before removal of unbound dye by washing with 1% acetic acid. The bound dye was solubilized with 10 mM Trizma base and the absorbance read at OD570.

cells in S-phase = settings: in vitro; cited from earlier work
CEM/C2 cells = test: Calcein AM viability assay (flow cytometry), camptothecin resistant CEM/C2 cells; type: cell-based, human; settings: for IC50: 48 hours, Calcein AM; for RR (relative resistance) CEM/C2 vs CEM: atypical multi-drug resistance and mutant topoisomerase I
Description: (§1) The Camptothecin resistant CEM/C2 cells were derived from the T lymphoblastoid leukemia cell line CCRF/CEM by selection in the presence of Camptohecin in vitro (Kapoor et al., 1995. Oncology Research 7; 83-95, ATCC
(§2) The cells were plated in T-25 flasks in the presence or absence of compound and incubated for 48 hours before termination of the assay. Cells were washed twice with PBS and incubated in 200 μl of a solution of Calcein AM (0.3 nM)/PBS for 90 minutes at 37° C. The cells were washed once with PBS before determining fluorescent units on a FACS can flow cytometer.

CCRF/CEM cells = test: Calcein AM viability assay (flow cytometry), parental CEM cells; type: cell-based, human; settings: 48 hours, read-out: IC50 CEM ("non-resistant")
Description: as §1, §2

1A9-PTX10 cells = test: SRB cytotoxicity assay, tubulin mutated paclitaxel-resistant 1A9-PTX10 cells; type: cell-based, human; settings: for IC50: 48 hours exposure, SRB, mean +/- SD, number of experiments in brackets; for RR (relative resistance) 1A9-PTX10 vs 1A9: ratio of the means of the resistant cells compared to the sensitive cells
Source text: (§3) The tubulin mutated, paclitaxel-resistant human ovarian carcinoma cell line 1A9-PTX10 and its parental paclitaxel-sensitive cell line 1A9 were derived from the A2780 human ovarian carcinoma cell line (J Biol Chem (1997) 272, 17118-17124).

MCF-7/VP cells = test: SRB cytotoxicity assay, etoposide-resistant MCF-7/VP cells (MRP1 up-regulated); type: cell-based; settings: for IC50: 48 hours, SRB; for RR (relative resistance) MCF7/VP vs MCF7: mean +/- SD
Source text: (§4) The etoposide-resistant breast cancer cell line MCF-7/VP was used (Schneider et al, Cancer Res, 54, 152). […] ABCC1; Schneider et al, Cancer Res, 54, 152; Perez-Soler et al, Int J Cancer, 71,35). The parental cell line, MCF-7, was used as a control.

1A9 cells = test: SRB cytotoxicity assay, parental paclitaxel-sensitive 1A9 cells; type: cell-based, human; settings: mean +/- SD, number of experiments in brackets, read-out: IC50 1A9 ("non-resistant")
Source text: as §3

A129 cp80 cells = test: SRB cytotoxicity assay, cisplatin-resistant A129 cp80 cells; type: cell-based, human; settings: for IC50: 48 hours, SRB
Description: (§6) The P-glycoprotein expressing NCI-Adr resistant subline (Vickers et al., 1989. Mol Endocrinology 3 (1):157-164) was used. […] Briefly, cells were plated in 96 well dishes 24 hours prior to compound addition. Where noted, they were exposed to verapamil for 4 hours prior to compound addition and then throughout the treatment period (48 hours). The assay was terminated with the addition of cold TCA to a final concentration of 10% and the plates were incubated for one hour at 4° C. The plates were then washed 5 times with water and 100 μl of a Sulforhodamine B solution (4%) was added to each well. The plate was then incubated for 10 minutes at room temperature before removal of unbound dye by washing with 1% acetic acid. The bound dye was solubilized with 10 mM Trizma base and the absorbance read at OD570.
(§7) The parental non-mutated cell line A 129 was used as control.
(§8) Cytotoxicty was measured using the SRB assay according to Shekan et al. as described above in Example 1A.

A129 cells = test: SRB cytotoxicity assay, parental A129 cells; type: cell-based, human; settings: 48 hours, read-out: IC50 A129 ("non-resistant")
Description: as §6, §7, §8

MCF-7 cells = test: SRB cytotoxicity assay, parental MCF-7 cells; type: cell-based; settings: read-out: IC50 MCF7 ("non-resistant")
Source text: as §4

HT29 cells = test: SRB cytotoxicity assay, parental HT29 cells; type: cell-based; settings: read-out: IC50 HT-29 ("non-resistant")
Description: as §5
(§9) The mitoxantrone-resistant colon carcinoma cell line HT29/MIT was used (Perego et al, Cancer Res, 61, 6034). […] The parental cell line, HT29, was used as a control.

HT29/MIT cells = test: SRB cytotoxicity assay, mitoxantrone-resistant HT29/MIT cells (BCRP up-regulated); settings: for RR (relative resistance) HT-29/MIT vs HT-29: mean +/- SD; for IC50: read-out: IC50 HT-29/MIT ("resistant")
Description: as §5, §9

P-gp = P-gp (Homo sapiens, UniProt P08183); settings: more potent than cyclosporine; cited from earlier work
Chain of P-gp (P08183 whole entry): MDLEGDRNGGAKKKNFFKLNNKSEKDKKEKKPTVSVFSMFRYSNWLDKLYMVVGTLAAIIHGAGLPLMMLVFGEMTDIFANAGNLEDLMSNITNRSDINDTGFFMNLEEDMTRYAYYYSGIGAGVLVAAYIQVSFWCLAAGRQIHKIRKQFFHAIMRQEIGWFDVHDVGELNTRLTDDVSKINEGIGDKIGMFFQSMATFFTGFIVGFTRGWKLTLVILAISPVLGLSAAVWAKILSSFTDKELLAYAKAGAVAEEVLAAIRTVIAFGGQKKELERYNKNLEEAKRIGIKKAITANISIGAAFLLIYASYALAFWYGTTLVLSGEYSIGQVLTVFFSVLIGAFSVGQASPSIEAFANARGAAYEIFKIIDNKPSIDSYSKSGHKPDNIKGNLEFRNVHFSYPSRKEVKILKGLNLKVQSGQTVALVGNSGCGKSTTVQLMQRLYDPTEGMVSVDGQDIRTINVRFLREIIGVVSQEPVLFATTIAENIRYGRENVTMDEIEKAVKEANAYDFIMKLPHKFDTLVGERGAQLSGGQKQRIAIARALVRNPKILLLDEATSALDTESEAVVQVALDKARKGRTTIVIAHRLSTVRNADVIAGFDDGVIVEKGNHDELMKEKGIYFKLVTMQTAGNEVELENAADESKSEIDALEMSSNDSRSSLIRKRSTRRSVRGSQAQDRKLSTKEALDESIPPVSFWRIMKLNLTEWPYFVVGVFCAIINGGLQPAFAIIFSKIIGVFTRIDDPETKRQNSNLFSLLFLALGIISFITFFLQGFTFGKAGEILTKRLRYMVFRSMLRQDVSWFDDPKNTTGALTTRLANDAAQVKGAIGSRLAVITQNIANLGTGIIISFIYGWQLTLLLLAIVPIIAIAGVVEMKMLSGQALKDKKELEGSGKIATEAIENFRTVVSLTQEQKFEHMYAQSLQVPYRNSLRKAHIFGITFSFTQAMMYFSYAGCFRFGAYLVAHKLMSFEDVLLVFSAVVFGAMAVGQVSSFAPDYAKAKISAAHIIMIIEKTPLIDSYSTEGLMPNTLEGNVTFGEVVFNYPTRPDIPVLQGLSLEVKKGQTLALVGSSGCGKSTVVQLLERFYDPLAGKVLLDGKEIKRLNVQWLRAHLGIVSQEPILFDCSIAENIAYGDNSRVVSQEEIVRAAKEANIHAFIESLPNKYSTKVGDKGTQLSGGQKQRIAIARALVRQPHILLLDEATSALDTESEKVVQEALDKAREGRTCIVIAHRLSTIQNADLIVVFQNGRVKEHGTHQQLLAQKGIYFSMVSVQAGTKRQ

[2] = Homo sapiens, NCI/ADR-RES, no verapamil, read-out: IC50 NCI-Adr resistant −verapamil ("resistant")
[3] = Homo sapiens, NCI/ADR-RES, verapamil 12.5 μg/ml, read-out: IC50 NCI-Adr resistant +verapamil ("non-resistant")
[4] = no verapamil, read-out: IC50 NCI-Adr resistant −verapamil ("resistant")
[5] = verapamil 12.5 μg/ml, read-out: IC50 NCI-Adr resistant +verapamil ("non-resistant")
[6] = read-out: IC50 MCF7/VP ("resistant")
[7] = Homo sapiens, 1A9, 48 hours exposure

Compound: COc1cccc2c1C(=O)c1c(O)c3c(c(O)c1C2=O)C[C@@](O)(C(=O)CO)C[C@@H]3O[C@H]1C[C@H](N)[C@H](O)[C@H](C)O1 [Adriamycin, adriamycin]
- IC50 [1, 2]: 650 nM
- IC50 [1, 3]: 75000 nM
- relative resistance, NCI-Adr resistant subline without vs with verapamil ([1]; individual experiments): 115 fold
- RR (relative resistance) NCI-Adr resistant −verapamil vs +verapamil [1]: 115

Compound: CC[C@@]1(O)C(=O)OCc2c1cc1n(c2=O)Cc2cc3ccccc3nc2-1 [Camptothecin, camptothecin]
- sensitivity to camptothecin of cells in S-phase relative to cells in G1 or G2 (cells in S-phase): 100-1000 times
- IC50 (CEM/C2 cells; Homo sapiens, CEM/C2): 6750 nM
- RR (relative resistance) CEM/C2 vs CEM (CEM/C2 cells): 1500
- IC50 (CCRF/CEM cells; Homo sapiens, CCRF-CEM): 5 nM

Compound: N.N.[Cl][Pt][Cl] [Cisplatin, cisplatin]
- IC50 [1, 4]: 13200 nM
- IC50 [1, 5]: 13000 nM
- IC50 (1A9-PTX10 cells): 13900 nM
- IC50 (MCF-7/VP cells; [6]): 31200 nM
- IC50 (CEM/C2 cells): 2200 nM
- IC50 (1A9 cells; 48 hours exposure): 8400 nM
- IC50 (A129 cp80 cells): 11600 nM
- IC50 (CCRF/CEM cells): 2600 nM
- IC50 (A129 cells): 130 nM
- IC50 (MCF-7 cells; 48 hours): 28700 nM

Compound: COc1cc([C@@H]2c3cc4c(cc3[C@@H](O[C@@H]3O[C@@H]5CO[C@@H](C)O[C@H]5[C@H](O)[C@H]3O)[C@H]3COC(=O)[C@H]23)OCO4)cc(OC)c1O [Etoposide, etoposide]
- IC50 (MCF-7/VP cells; Homo sapiens, MCF7-VP): > 100000 nM
- RR (relative resistance) MCF7/VP vs MCF7 (MCF-7/VP cells): >20
- relative resistance in individual experiments, MCF-7/VP vs MCF-7 (MCF-7/VP cells; range over individual experiments): > 20 fold
- IC50 (MCF-7 cells; Homo sapiens, MCF7, 48 hours): 7200 nM

Compound: N.NC1CCCCC1.[Cl-].[Cl-].[Pt+2] [JM118]
- IC50 [1, 4]: 2100 nM
- RR (relative resistance) NCI-Adr resistant −verapamil vs +verapamil [1]: 1.1
- IC50 [1, 5]: 2300 nM
- IC50 (1A9-PTX10 cells): 1500 nM
- RR (relative resistance) 1A9-PTX10 vs 1A9 (1A9-PTX10 cells): 3.1
- IC50 (HT29 cells; 48 hours): 4500 nM
- RR (relative resistance) HT-29/MIT vs HT-29 (HT29/MIT cells): 1.3 +/− 0.1
- IC50 (HT29/MIT cells; 48 hours, SRB): 6000 nM
- IC50 (MCF-7/VP cells; [6]): 1300 nM
- RR (relative resistance) MCF7/VP vs MCF7 (MCF-7/VP cells): 1.1 +/− 0.1
- IC50 (CEM/C2 cells): 500 nM
- RR (relative resistance) CEM/C2 vs CEM (CEM/C2 cells): 1.18
- IC50 (1A9 cells; 48 hours exposure): 500 nM
- IC50 (A129 cp80 cells): 430 nM
- RR (relative resistance) A129 cp80 vs A129 (A129 cp80 cells; cisplatin resistance mechanism): 2.6
- IC50 (CCRF/CEM cells): 430 nM
- IC50 (A129 cells): 170 nM
- IC50 (MCF-7 cells; 48 hours): 1200 nM

Compound: O=C1c2c(O)ccc(O)c2C(=O)c2c(NCCNCCO)ccc(NCCNCCO)c21 [Mitoxantrone, mitoxantrone]
- IC50 (HT29 cells; Homo sapiens, HT-29, 48 hours): 1300 nM
- IC50 (HT29/MIT cells; Homo sapiens, HT-29, 48 h): 198000 nM
- RR (relative resistance) HT-29/MIT vs HT-29 (HT29/MIT cells): 175 +/− 67

Compound: C/C=C/C[C@@H](C)C(=O)[C@H]1C(=O)N[C@@H](C(C)C)C(=O)N(C)CC(=O)N(C)[C@@H](CC(C)C)C(=O)N[C@@H](C(C)C)C(=O)N(C)[C@@H](CC(C)C)C(=O)N[C@@H](C)C(=O)N[C@H](C)C(=O)N(C)[C@@H](CC(C)C)C(=O)N(C)[C@@H](CC(C)C)C(=O)N(C)[C@@H](C(C)C)C(=O)N1C [PSC-833]
- P-gp inhibitor potency relative to cyclosporine (P-gp): 10 times

Compound: CC(=O)O[C@H]1C(=O)[C@@]2(C)[C@H]([C@H](OC(=O)c3ccccc3)[C@]3(O)C[C@H](OC(=O)[C@H](O)[C@@H](NC(=O)c4ccccc4)c4ccccc4)C(C)=C1C3(C)C)[C@]1(OC(C)=O)CO[C@@H]1C[C@@H]2O [Paclitaxel, paclitaxel]
- IC50 [1, 2]: 1420 nM
- IC50 [1, 3]: 31 nM
- RR (relative resistance) NCI-Adr resistant −verapamil vs +verapamil [1]: 46
- IC50 (1A9-PTX10 cells; Homo sapiens, 1A9/ptx-10): 213 nM
- RR (relative resistance) 1A9-PTX10 vs 1A9 (1A9-PTX10 cells): 42.6
- IC50 (1A9 cells; [7]): 5 nM

Compound: CC(=O)O[C@@]12CO[C@@H]1C[C@H](O)[C@@]1(C)C(=O)[C@H](O)C3=C(C)[C@@H](OC(=O)[C@H](O)[C@@H](NC(=O)OC(C)(C)C)c4ccccc4)C[C@@](O)([C@@H](OC(=O)c4ccccc4)[C@H]21)C3(C)C [Taxotere, N-debenzoyl-N-tert-butoxycarbonyl-10-deacetyl paclitaxel]
- IC50 [1, 2]: 620 nM
- IC50 [1, 3]: 19 nM
- IC50 (1A9-PTX10 cells; Homo sapiens, 1A9/ptx-10): 212 nM
- IC50 (1A9 cells; [7]): 2 nM
